Results published in ChEMBL document CHEMBL1145293, “Synthesis and SAR of GlyT1 inhibitors derived from a series of N-((4-(morpholine-4-carbonyl)-1-(propylsulfonyl)piperidin-4-yl)methyl)benzamides” (Bioorg Med Chem Lett, 2006).

Assays:
[1] = target: Cytochrome P450 3A4 (Homo sapiens, UniProt P08684); experiment: Inhibition of CYP3A4; format: ADME
[2] = target: T1, Sodium- and chloride-dependent glycine transporter 1 (Mus musculus, UniProt P28571); experiment: Inhibition of mouse GlyT1
T1 sequence (P28571 whole entry): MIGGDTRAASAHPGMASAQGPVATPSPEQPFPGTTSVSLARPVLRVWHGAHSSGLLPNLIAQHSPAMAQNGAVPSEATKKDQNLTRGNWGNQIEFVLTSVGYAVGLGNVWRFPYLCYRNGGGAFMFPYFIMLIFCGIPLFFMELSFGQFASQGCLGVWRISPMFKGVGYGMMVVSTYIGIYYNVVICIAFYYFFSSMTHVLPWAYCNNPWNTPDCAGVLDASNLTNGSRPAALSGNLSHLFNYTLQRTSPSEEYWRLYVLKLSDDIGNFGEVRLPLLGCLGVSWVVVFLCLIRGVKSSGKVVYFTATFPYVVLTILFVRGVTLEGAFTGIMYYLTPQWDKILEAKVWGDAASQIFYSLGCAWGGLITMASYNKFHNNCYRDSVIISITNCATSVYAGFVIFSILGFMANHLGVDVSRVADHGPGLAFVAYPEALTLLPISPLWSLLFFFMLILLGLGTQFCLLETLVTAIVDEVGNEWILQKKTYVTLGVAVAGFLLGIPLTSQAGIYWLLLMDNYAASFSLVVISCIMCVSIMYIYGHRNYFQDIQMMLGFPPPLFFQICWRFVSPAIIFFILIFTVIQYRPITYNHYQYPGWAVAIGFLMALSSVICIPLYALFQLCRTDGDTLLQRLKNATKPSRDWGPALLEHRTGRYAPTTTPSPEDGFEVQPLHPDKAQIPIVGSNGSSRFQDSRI

[3] = target: Cytochrome P450 2C9 (Homo sapiens, UniProt P11712); experiment: Inhibition of CYP2C9; format: ADME
Cytochrome P450 2C9, sequence (P11712 whole entry): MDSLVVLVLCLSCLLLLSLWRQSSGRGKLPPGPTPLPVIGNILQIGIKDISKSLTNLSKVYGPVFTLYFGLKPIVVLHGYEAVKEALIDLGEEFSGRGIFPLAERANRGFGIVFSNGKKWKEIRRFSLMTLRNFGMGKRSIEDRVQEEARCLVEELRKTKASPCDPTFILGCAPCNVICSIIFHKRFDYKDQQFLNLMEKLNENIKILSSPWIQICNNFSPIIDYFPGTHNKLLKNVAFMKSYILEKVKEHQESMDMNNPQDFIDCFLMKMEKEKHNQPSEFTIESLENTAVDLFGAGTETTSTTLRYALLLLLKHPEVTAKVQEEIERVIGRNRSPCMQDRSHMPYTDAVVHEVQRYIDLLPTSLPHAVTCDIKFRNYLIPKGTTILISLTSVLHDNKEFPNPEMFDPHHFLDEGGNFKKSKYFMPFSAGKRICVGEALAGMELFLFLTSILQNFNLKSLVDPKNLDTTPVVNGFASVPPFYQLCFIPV

Cytochrome P450 3A4, sequence (P08684 whole entry): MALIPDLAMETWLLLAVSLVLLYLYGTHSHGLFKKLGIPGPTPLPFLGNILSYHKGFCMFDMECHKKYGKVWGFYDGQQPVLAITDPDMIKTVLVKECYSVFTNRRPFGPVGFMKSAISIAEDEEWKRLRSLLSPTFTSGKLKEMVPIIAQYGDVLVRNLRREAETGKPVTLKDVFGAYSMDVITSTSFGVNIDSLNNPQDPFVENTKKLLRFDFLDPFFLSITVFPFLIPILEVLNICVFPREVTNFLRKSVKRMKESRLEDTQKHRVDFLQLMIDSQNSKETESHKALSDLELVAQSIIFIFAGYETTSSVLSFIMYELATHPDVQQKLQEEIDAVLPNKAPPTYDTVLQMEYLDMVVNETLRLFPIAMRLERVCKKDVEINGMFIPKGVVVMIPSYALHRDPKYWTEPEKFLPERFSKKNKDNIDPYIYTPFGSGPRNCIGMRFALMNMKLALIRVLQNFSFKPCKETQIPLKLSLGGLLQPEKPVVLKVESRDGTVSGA

SMILES	Activity [1]	IC50 [2] [nM]	Activity [3]
CCCS(=O)(=O)N1CCC(CNC(=O)c2ccc(F)cc2Cl)(C(=O)N2CCOCC2)CC1	Not Active	28.5	Not Active
CCCS(=O)(=O)N1CCC(CNC(=O)c2c(F)ccc(Cl)c2F)(C(=O)N2CCOCC2)CC1	Not Active	42.8	Not Active
CCCS(=O)(=O)N1CCC(CNC(=O)c2ccc(Cl)cc2Cl)(C(=O)N2CCOCC2)CC1	Not Active	7.6	Not Active
CCCS(=O)(=O)N1CCC(CNC(=O)c2c(F)cccc2Cl)(C(=O)N2CCOCC2)CC1	Not Active	57.3	Not Active
CCCS(=O)(=O)N1CCC(CNC(=O)c2ccccc2Cl)(C(=O)N2CCOCC2)CC1	Not Active	95.3	Not Active
CCCS(=O)(=O)N1CCC(CNC(=O)c2cc(F)c(Cl)cc2Cl)(C(=O)N2CCOCC2)CC1	Not Active	19.4	Not Active
